# Data: patent US6919464B1, “Synthetic derivatives of 21-butenyl and related spinosyns” (Dow AgroSciences LLC, priority 2001, dated 2005)
# What was measured:
# Format in all cases: in vivo
# [1] = system: Aphis gossypii; assay: Cotton Aphid (Aphis gossypii) assay, spray on squash seedlings; settings: rate 50 ppm, relative to plants sprayed with solvent only
# Experimental: Insecticidal activities of the compounds of the invention were also evaluated against cotton aphids (Aphis gossyppi) as follows. Summer crookneck squash seedlings at the expanded cotyledon stage are primed to a single cotyledon and infested with cotton aphids 16-24 hours before application of the test material by transfer of infested foliage cut from a stock colony. Immediately prior to spray application of the test material, the transfer foliage is removed from the squash plants. The test material is dissolved at 1 mg/ml in 90:10 acetone:alcohol, then diluted in water containing 0.05% Tween 20 (polyethylene (20) sorbitan monolaurate) to give test solution at a concentration of 50 ppm. The plants were sprayed with the test solution using an atomizing sprayer at 17 psi. Both surfaces of the cotyledons are covered until runnoff, and then allowed to dry. Activity of the compound was determined at three days after treatment. Activity was rated as a percent based on the number of aphids present in plants sprayed with solvent only.
# [2] = system: Heliothis virescens; assay: Tobacco Budworm (Heliothis virescens) feeding assay, cotton leaf-dip; settings: second instar larvae
# From the text: To compare insecticidal activities of compounds of the invention against second instar larval Heliothis virescens leaf-dip bioassay was used. Cotton cotyledon leaves were dipped in a test solution made up of the compound dissolved in acetone: Millipore water (2:1) at rates of 400 ppm to 1.56 ppm. Each cotyledon was placed individually on top of a moistened (distilled water) cotton ball in the bottom of a 1 oz plastic cup and allowed to dry (one hour). After drying, a single laboratory-reared second instar Heliothis virescens larva (mean weight 15 mg.) was placed on the treated leaf and the cup sealed with a lid, and held at 27° C. for four days. Percent mortality was determined at the end of the holding period.
# [3] = system: Heliothis virescens; assay: Tobacco Budworm (Heliothis virescens) topical assay
# Experimental: An additional measure of the relative insecticidal activities of the compounds of the invention was generated by using a 1 ug/ul acetone solution of each compound applied at 1 ug/larva of laboratory-reared Heliothis virescens larvae (mean weight of 22 mg). Each compound was applied along the dorsum of each of six larvae. Treated larvae were then held for two days at 21° C., 60% RH in six-well plastic culture plates. Larvae were each supplied with a 1 cm^3 of agar-based lepidoptera diet for sustenance during the two-day post-exposure interval. Percent mortality was determined at the end of a two-day period.
# [4] = system: Heliothis virescens; assay: Tobacco Budworm (Heliothis virescens) feeding assay, cotton leaf-dip; settings: rate 600 ppm, second instar larvae, 96 h
smiles,measurement,setting,value
CCCCOC1C(OC)C(C)OC(OC2CC3CCC4C5CC(=O)OC(CCCC)CCCC(OC6CCC(N(C)C)C(C)O6)C(C)C(=O)C5=CC4C3C2)C1OC (stereo not shown) [Compound A17],Cotton Aphid mortality (72 h) Mortality (%),[1],100%
same,Tobacco Budworm Feeding (96 h) Mortality (%),[2]; rate 6.25 ppm,10%
same,Tobacco Budworm Typical (48 h) Mortality (%),"[3]; rate 1 µg/larva, 48 h",100%
CCCCCOC1C(OC)C(C)OC(OC2CC3CCC4C5CC(=O)OC(CCCC)CCCC(OC6CCC(N(C)C)C(C)O6)C(C)C(=O)C5=CC4C3C2)C1OC (stereo not shown) [Compound A18],Cotton Aphid mortality (72 h) Mortality (%),[1],91%
same,Tobacco Budworm Feeding (96 h) Mortality (%),[2]; rate 1.56 ppm,20%
same,Tobacco Budworm Typical (48 h) Mortality (%),"[3]; rate 1 µg/larva, 48 h",33%
"CCCC[C@H]1CCC[C@H](OC2CC[C@H](N(C)C)[C@@H](C)O2)[C@@H](C)C(=O)C2=CC3C4C[C@H](O[C@@H]5O[C@@H](C)[C@H](OC)[C@@H](OC)[C@H]5OC)CC4CCC3C2CC(=O)O1 (stereo partly shown) [Compound B3, 5,6,22,23-tetrahydro-for-rham-I]",mortality at 50 ppm,"[1]; Aphis gossypii, 72 h",53%
same,mortality at 6.25 ppm,"[2]; Heliothis virescens, rate 6.25 ppm, 96 h",100%
same,Tobacco Budworm Typical (48 h) Mortality (%),[3]; in vivo,100%
"CCCC[C@H]1CCC[C@H](OC2CC[C@H](N(C)C)[C@@H](C)O2)[C@@H](C)C(=O)C2=CC3C4C[C@H](O[C@@H]5O[C@@H](C)[C@H](OC)[C@@H](O)[C@H]5OC)CC4CCC3C2CC(=O)O1 (stereo partly shown) [Compound B12, 5,6,22,23-tetrahydro-for-(3′-O-desmethylrham)-I]",mortality at 600 ppm,[4],100%
